The source of these data is PMC5727842, “Antioxidant and Antidiabetic Effects of Flavonoids: A Structure-Activity Relationship Based Study” (BioMed Research International, 2017).

Test [1] concerns the target α-glucosidase from Saccharomyces cerevisiae. As to the kind of experiment: α-Glucosidase inhibitory assay. In kind it is biochemical. The following applies: Table 3; mean ± SEM (n = 3); NA: not active. The protocol:
α-Glucosidase inhibitory activity of the flavonoids was carried out according to the standard method with minor modification. […] A solution of 30 mM phosphate buffer (pH 6.5) was used to prepare stock solution of the sample to form a final concentration of 160 μg/mL. Then, 10 μL/well of sample was mixed with 15 μL/well of α-glucosidase from Saccharomyces cerevisiae (Megazyme, Ireland). 50 mM buffer (pH 6.5) was used to prepare the enzyme solution. Then, 115 μL/well of 30 mM buffer (pH 6.5) was added and incubated for 5 min at room temperature. Then, 75 μL/well of PNP-glucoside was added to initiate reaction and incubated at room temperature for 15 min. Finally, about 50 μL glycine at pH 10 was added to stop the reaction. The final volume of 250 μL of compound, positive control, enzyme, 30 mM buffer, and substrate was located in 96-well microplate. The absorbance (Abs) was measured using microplate reader (Tecan NanoQuant Infinite M200, Switzerland) at 405 nm to represent the amount of p-nitrophenol released from PNP-glucoside. […] The equation given below was used to calculate the inhibitory activity (%):(4) Inhibitory activity%=Abs control−Abs sample/Abs control×100%.
Tested on yeast α-glycosidase, the reaction is initiated by reacting the inhibitor (sample) with the α-glycosidase enzyme that competes with […] for the binding site, thus releasing ρ-nitrophenol which was measured in the assay.

For test [2], the target named is T1, DPP-4 (Homo sapiens, UniProt P27487).
T1 construct: purchased Cayman (Michigan, USA)
T1 sequence (P27487 whole entry): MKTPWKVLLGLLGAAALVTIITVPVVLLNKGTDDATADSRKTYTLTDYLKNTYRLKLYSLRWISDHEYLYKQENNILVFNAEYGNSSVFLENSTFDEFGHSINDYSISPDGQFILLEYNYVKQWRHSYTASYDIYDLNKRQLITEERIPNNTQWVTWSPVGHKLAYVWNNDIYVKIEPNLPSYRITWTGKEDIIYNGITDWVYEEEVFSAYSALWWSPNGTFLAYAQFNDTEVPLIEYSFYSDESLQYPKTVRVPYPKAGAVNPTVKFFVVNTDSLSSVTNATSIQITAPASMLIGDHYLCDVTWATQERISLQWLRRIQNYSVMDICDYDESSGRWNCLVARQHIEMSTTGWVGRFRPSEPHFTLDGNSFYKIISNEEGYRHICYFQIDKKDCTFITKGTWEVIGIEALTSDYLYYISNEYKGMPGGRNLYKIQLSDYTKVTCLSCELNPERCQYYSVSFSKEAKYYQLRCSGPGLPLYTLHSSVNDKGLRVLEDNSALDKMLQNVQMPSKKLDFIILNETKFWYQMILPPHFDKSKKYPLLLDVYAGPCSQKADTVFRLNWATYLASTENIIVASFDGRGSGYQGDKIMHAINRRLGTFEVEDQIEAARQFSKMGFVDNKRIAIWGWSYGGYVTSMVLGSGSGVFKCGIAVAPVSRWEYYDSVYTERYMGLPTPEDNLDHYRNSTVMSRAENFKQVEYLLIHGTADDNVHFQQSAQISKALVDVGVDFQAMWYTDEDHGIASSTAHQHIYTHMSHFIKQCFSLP
The experiment in a line: Dipeptidyl peptidase IV (DPP-4) inhibitory assay. It counts as biochemical. Particulars: Table 3; mean ± SEM (n = 3); NA: not active. The protocol: Dipeptidyl peptidase (IV) inhibitors work by inhibiting the action of this enzyme, thereby prolonging the activity of incretins that play an important role in insulin secretion and blood glucose control regulation. DPP-4 inhibitory assay was performed as per the standard method (Cayman, USA). Firstly, 1 mg of sample was dissolved in 10% of DMSO and MeOH as the stock solution. For initial activity (100%), 10 μL of MeOH, 30 μL of diluted assay buffer, and 10 μL of diluted DPP-4 (Cayman, USA) were added to 96-well microplate. […] For background well, 10 μL of MeOH and 40 μL of diluted assay buffer were added. Then, 10 μL of prepared sample and 30 μL of diluted assay buffer were added with 10 μL of diluted DPP-4. After that, 50 μL of substrate solution was added to all wells to initiate the reaction and further incubated in the dark at 37°C for 30 min. Finally, plate was read at 360 nm of excitation wavelength and 465 nm of emission wavelength using fluorescence microplate reader (Perkin Elmer, Germany). All determinations were done in triplicate and half maximal concentration (IC50) values were calculated from the percentage of inhibition based on the linear regression analysis. The equation given below was applied to calculate the inhibitory activity (%):(5) Inhibitory activity%=Initial Activity−Sample/Initial Activity×100%.
For DPP-4 inhibitory assay, the reaction is based on the cleavage of the peptide bond by DPP releasing the free Gly-Pro-aminomethylcoumarin group, a fluorogenic substrate resulting in fluorescence excitation and emission.

≈ marks a conversion by molar mass, not a printed value.

For orientation: IC50 means the concentration needed to halve the response being measured. Low values mean higher potency, high ones lower potency. Turning to `COc1cc(O)c2c(=O)cc(-c3ccccc3)oc2c1` [Techtochrysin, 5-Hydroxy-7-methoxyflavone], in test [1], the “IC50 α-Glucosidase” value is reported as >100^A µg/mg. In test [2], this compound showed an IC50 above 373 µM.
Regarding `O=c1cc(-c2ccc(O)c(O)c2)oc2c(O)c(O)cc(O)c12` [Hypolaetin, 3′,4′,5,7,8-Pentahydroxyflavone], the “IC50 α-Glucosidase” value in test [1] is on record as 48.42 ± 9.71 µg/mL (≈ 160 µM). Besides, in test [2], half-maximal inhibition (IC50) was put at 115 µM.
